Results on 6 compounds are retold here after ChEMBL document CHEMBL4219089, “Targeting RORs nuclear receptors by novel synthetic steroidal inverse agonists for autoimmune disorders” (Bioorg Med Chem, 2018).

In data set [1] the test system is HepG2. The data set is described as follows: Cytotoxicity against human HepG2 cells assessed as effect on cell viability at 25 to 50 uM after 24 hrs by MTT assay. The settings on record: hepg2, 24 h. The data set is classed as cell-based. Background: Tetrazolium assays rely on reduction of a dye to a coloured formazan, in cell work by metabolically active cells.

Data set [2] concerns the target T1, Estrogen receptor (Homo sapiens, UniProt P03372).
T1 sequence (P03372 whole entry): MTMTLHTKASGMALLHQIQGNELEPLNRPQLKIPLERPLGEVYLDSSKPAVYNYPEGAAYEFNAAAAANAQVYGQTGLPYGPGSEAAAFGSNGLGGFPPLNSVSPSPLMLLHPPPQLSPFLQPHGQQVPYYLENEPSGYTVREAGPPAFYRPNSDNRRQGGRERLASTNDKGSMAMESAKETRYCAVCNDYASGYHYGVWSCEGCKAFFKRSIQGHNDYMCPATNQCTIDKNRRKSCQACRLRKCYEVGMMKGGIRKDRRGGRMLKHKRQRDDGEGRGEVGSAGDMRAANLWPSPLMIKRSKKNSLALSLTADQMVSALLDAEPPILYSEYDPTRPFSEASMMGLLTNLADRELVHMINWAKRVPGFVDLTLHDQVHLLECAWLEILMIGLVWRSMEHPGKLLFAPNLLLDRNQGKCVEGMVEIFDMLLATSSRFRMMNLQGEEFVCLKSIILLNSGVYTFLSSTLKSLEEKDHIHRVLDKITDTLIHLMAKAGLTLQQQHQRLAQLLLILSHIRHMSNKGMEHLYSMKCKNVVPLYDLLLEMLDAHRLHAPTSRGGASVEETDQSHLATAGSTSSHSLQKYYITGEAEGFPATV
The data set is described as follows: Estrogenic activity at estrogen receptor in human MCF7 cells assessed as increase in GREB1 gene expression at 2 uM after 24 hrs by qRT-PCR analysis. The data set is classed as ADME, cell-based. The settings on record: mcf7, 24 h. In general terms: Quantitative PCR measures a nucleic acid by following its amplification.

Data set [3] has as its target T1, Estrogen receptor. The data set is described as follows: Estrogenic activity at estrogen receptor in human MCF7 cells assessed as increase in CXCL12 gene expression at 2 uM after 24 hrs by qRT-PCR analysis. The settings on record: mcf7, 24 h. Type of data set: ADME, cell-based.
For data set [4], the target named is T2, Nuclear receptor ROR-gamma (Homo sapiens) (UniProt P51449).
T2 sequence (whole entry): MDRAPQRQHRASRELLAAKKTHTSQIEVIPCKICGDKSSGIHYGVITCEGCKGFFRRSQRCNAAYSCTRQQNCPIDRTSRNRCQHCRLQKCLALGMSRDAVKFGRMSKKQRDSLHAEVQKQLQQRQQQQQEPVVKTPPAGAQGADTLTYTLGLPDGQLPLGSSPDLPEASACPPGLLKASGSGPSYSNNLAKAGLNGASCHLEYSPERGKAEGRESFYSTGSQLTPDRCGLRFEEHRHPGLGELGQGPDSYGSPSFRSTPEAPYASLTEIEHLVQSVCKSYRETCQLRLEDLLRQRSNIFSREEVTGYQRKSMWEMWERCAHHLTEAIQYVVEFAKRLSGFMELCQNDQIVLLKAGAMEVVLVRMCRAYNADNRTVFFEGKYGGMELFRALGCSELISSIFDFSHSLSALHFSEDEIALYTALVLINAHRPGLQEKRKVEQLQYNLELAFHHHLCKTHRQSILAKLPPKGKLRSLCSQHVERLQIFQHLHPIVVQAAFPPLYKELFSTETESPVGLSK
The data set is described as follows: (§1) Inverse agonist activity at Gal4-fused RORgammat LBD (unknown origin) expressed in HEK293 cells measured after 48 hrs post transfection by dual-luciferase reporter gene assay. The data set is classed as cell-based. A general note: Reporter assays use an easily measured gene product as a stand-in for the process of interest.

The target in data set [5] is T3, Nuclear receptor ROR-gamma (Homo sapiens, UniProt P51449).
T3 sequence (P51449 whole entry): T2 sequence (whole entry)
The description is as §1. The data set is classed as cell-based.

Data set [6] has as its system HEK293. The data set is described as follows: Cytotoxicity against HEK293 cells assessed as effect on cell viability at 10 to 20 uM after 24 hrs by MTT assay. The data set is classed as cell-based. The settings on record: human, hek293, 24 h.
Data set [7] deals with HEK293. The data set is described as follows: Cytotoxicity against HEK293 cells expressing GAL4-fused RORgammat assessed as effect on cell viability at 10 to 20 uM after 24 hrs by MTT assay. The data set is classed as cell-based. The following applies: human, hek293, 24 h.
Data set [8] relates to HepG2. The data set is described as follows: Cell cycle arrest in human HepG2 cells at 10 to 20 uM after 24 hrs by propidium iodide staining based flow cytometric analysis. The data set is classed as ADME. The settings on record: hepg2, 24 h.
The subject of data set [9] is HEK293. The data set is described as follows: Cell cycle arrest in HEK293 cells at 10 to 20 uM after 24 hrs by propidium iodide staining based flow cytometric method. The settings on record: human, hek293, 24 h.
Data set [10] concerns HEK293. The data set is described as follows: Cell cycle arrest in HEK293 cells expressing GAL4-fused RORgammat at 10 to 20 uM after 24 hrs by propidium iodide staining based flow cytometric method. The settings on record: human, hek293, 24 h. Type of data set: ADME.
Data set [11] deals with HepG2. The data set is described as follows: Cytotoxicity against human HepG2 cells assessed as effect on cell viability at 6.25 uM after 24 hrs by MTT assay. The data set is classed as cell-based. The following applies: hepg2, 24 h.
The test system of data set [12] is HepG2. The data set is described as follows: Cytotoxicity against human HepG2 cells assessed as effect on cell viability at 6.25 to 50 uM after 24 hrs by MTT assay. The settings on record: hepg2, 24 h. Type of data set: cell-based.

The term IC50 denotes the concentration needed to halve the response being measured. A low value points to greater potency. In the case of `C[C@@]12C=C(C(=O)O)C[C@H]1[C@@H]1CCc3cc(O)c(C(=O)c4ccccc4)cc3[C@H]1CC2`, the Activity result in the data set on HepG2 [1] is “Toxic”; at Estrogen receptor [2], “Not Active”; at Estrogen receptor [3], “Not Active”; in data set [4], “Dose-dependent effect”; in the data set on HEK293 [6], “Non-Toxic”; with HEK293 [7], “Non-Toxic”. The Activity result with HepG2 [8], in the data set on HEK293 [9] and in the data set on HEK293 [10] was “Non-Toxic” each time. Also, in data set [5], the half-maximal inhibitory concentration (IC50) was 4.4 µM.

Take `C[C@]12CC[C@@H]3c4cc(-c5ccc(-c6ccccc6)cc5)c(O)cc4CC[C@H]3[C@@H]1CC(C(=O)O)C2O` (stereo not given in full): in the data set on HepG2 [11], the Activity entry was “Toxic”.

With `C[C@]12CC[C@@H]3c4cc(-c5ccccc5)c(O)cc4CC[C@H]3[C@@H]1CC(C(=O)O)C2O` (stereo not given in full), the Activity result in the data set on HepG2 [11] is “Toxic”.

For the compound `COc1cc2c(cc1C13CC4CC(CC(C4)C1)C3)[C@H]1CC[C@]3(C)C=C(C(=O)O)C[C@H]3[C@@H]1CC2`, the Activity result with HepG2 [12] was “Non-Toxic”; at Estrogen receptor [2], “Not Active”; at Estrogen receptor [3] it was “Not Active”; in data set [4] it was “Dose-dependent effect”; with HEK293 [6], “Non-Toxic”; in the data set with HEK293 [7] it was “Non-Toxic”. The Activity result in the data set on HepG2 [8], with HEK293 [9] and in the data set on HEK293 [10] was “Non-Toxic” throughout. The same compound showed a concentration for half-maximal inhibition (IC50) in [5] of 6.8 µM.

Consider `C[C@@]12C=C(C(=O)O)C[C@H]1[C@@H]1CCc3cc(O)c(C45CC6CC(CC(C6)C4)C5)cc3[C@H]1CC2`, for which the Activity entry with HepG2 [12] is “Non-Toxic”; at Estrogen receptor [2], “Active”; on Estrogen receptor [3], “Active”; in data set [4] it was “Dose-dependent effect”; in the data set with HEK293 [6], “Non-Toxic”; with HEK293 [7] it was “Non-Toxic”. Also, the Activity entry in the data set with HepG2 [8], in the data set on HEK293 [9] and in the data set on HEK293 [10] was “Non-Toxic” each time. Besides, the concentration for half-maximal inhibition (IC50) in data set [5] is 6.5 µM.

Turning to `C[C@]12CC[C@@H]3c4cc(-c5cccc6c5oc5ccccc56)c(O)cc4CC[C@H]3[C@@H]1CC(C(=O)O)C2O` (stereo not given in full), the Activity entry in the data set on HepG2 [12] was “Non-Toxic”; in data set [4], “Dose-dependent effect”; in the data set with HEK293 [6], “Non-Toxic”; in the data set on HEK293 [7], “Non-Toxic”; in the data set with HepG2 [8], “Non-Toxic”; in the data set on HEK293 [9] it was “Non-Toxic”. The Activity entry with HEK293 [10] was “Non-Toxic”. Also, the IC50 in data set [5] was determined as 4.7 µM.
